Test results reported in patent US20240294572A1, “Antimicrobial Peptides” (priority 2021, published 2024).
Converted amounts (≈) assume the structure as drawn. Residues, ends and D or L forms follow the SMILES beside them. *: point of attachment. Myristoyl = CCCCCCCCCCCCCC(=O)*; Lauroyl = CCCCCCCCCCCC(=O)*; Decanoyl = CCCCCCCCCC(=O)*; Octanoyl = CCCCCCCC(=O)*; Hexanoyl = CCCCCC(=O)*

What was measured:
Assay type in all cases: cell-based
E. coli ATCC 25922 = system: E. coli ATCC 25922
Procedure: (§1) The antibacterial activity of peptides was evaluated using a standard broth microdilution protocol (Clinical Laboratories Standards Institute (CLSI): M07-A10. Methods for Dilution Antimicrobial Susceptibility Tests for Bacteria that grow aerobically; Approved Standard, Tenth Edition, 2015) with minor modifications as described (Mishra, et al. (2019) Proc. Natl. Acad. Sci., 116:13517-13522). In brief, peptides (10 μL per well) with 2-fold dilutions were made in 96-well polystyrene microplates. Subsequently, the logarithmic phase bacterial cultures (i.e., optical density at 600 nm ˜0.5) were diluted to 0.001 OD and aliquoted to 90 μL per well. The plates were incubated overnight at 37°° C. Bacterial controls were treated with water, and the wells containing only the TSB media were used as blank. Positive controls included the parent peptide LL-37 as well as KR12. Post incubation, the plates were read at 630 nm using ChroMate® 4300 Microplate Reader (Awareness Technology, FL).
(§2) To study the influence of medium conditions on the antimicrobial activity of peptides against S. aureus USA300, different pH, sodium chloride (NaCl), human sera were included into the antibacterial assays. Control experiments in TSB without any additions (pH 7.4) were set up in the same manner. In addition, antimicrobial activities of human LL-37, KR12, and C10-KR8d were compared in 10%, 50%, and 100% TSB as well as in TSB and MHB using E. coli ATCC 25922 and S. aureus USA300 LAC.

S. aureus USA300 LAC = conditions: USA300
Procedure: as §1, §2

[1] = system: Klebsiella pneumonia ATCC 13883; assay: Antibacterial broth microdilution MIC
Procedure: as §1

[2] = system: human red blood cells (hRBCs); conditions: red cells of human, 1 h
Procedure: Hemolytic assays of peptides were performed as described (Lakshmaiah, et al. (2020) Proc. Natl. Acad. Sci., 117:19446-19454). Briefly, human red blood cells (hRBCs) were obtained from UNMC Blood Bank. The cells were washed 3× with isotonic saline (0.9% NaCl) and diluted to 2% (v/v). Peptides at various concentrations were added to the 2% blood cells and incubated at 37° C. for 1 hour. Post-incubation, the plates were spun at 2000 rpm for 10 minutes; aliquots of the supernatant were carefully transferred to a fresh 96-well microplate. The amount of cells lysed is proportional to the hemoglobin released and was measured at 545 nm using a ChroMate® microplate reader (Awareness Technology, FL). The percent lysis was calculated by assuming 100% release when human blood cells were treated with 1% Triton™ X-100, and 0% release when incubated with PBS. The peptide concentration that caused 50% lysis of hRBCs is defined as HC50. The cell selectivity index (CSI) was calculated as the ratio between HC50 and the MIC of the corresponding peptide against MRSA.

P. aeruginosa PAO1 = system: P. aeruginosa PAO1
Procedure: as §1

Compound | MIC (μM) EC (E. coli ATCC 25922) [µM] | MIC (μM) SA (S. aureus USA300 LAC) [µM] | MIC (μM) KP [1] [µM] | HC50 [2] [µM] | MIC (μM) PA (P. aeruginosa PAO1) [µM]
CCCCCCCCCCCC(=O)N[C@@H](CCCCN)C(=O)N[C@@H](CCCNC(=N)N)C(=O)N[C@H](C(=O)N[C@@H](Cc1c[nH]c2ccccc12)C(N)=O)[C@@H](C)CC [Peptide C12-KR4] (Lauroyl-KRIW-NH2) | 12.5 (≈ 9.79 µg/mL) | 3.1 (≈ 2.43 µg/mL) | >50 | 30 | 6.2 (≈ 4.86 µg/mL)
CCCCCCCC(=O)N[C@@H](CCCCN)C(=O)N[C@@H](CCCNC(=N)N)C(=O)N[C@H](C(=O)N[C@@H](Cc1c[nH]c2ccccc12)C(=O)N[C@@H](CCC(N)=O)C(=O)N[C@@H](CCCNC(=N)N)C(N)=O)[C@@H](C)CC [Peptide C8-KR6] (Octanoyl-KRIWQR-NH2) | 50 (≈ 50.6 µg/mL) | >50 | >50 | >200 | >50
CCCCCC(=O)N[C@@H](CCCCN)C(=O)N[C@@H](CCCNC(=N)N)C(=O)N[C@H](C(=O)N[C@@H](Cc1c[nH]c2ccccc12)C(=O)N[C@@H](CCC(N)=O)C(=O)N[C@@H](CCCNC(=N)N)C(=O)N[C@H](C(=O)N[C@@H](CCCCN)C(=O)N[C@@H](CC(=O)O)C(=O)N[C@@H](Cc1ccccc1)C(=O)N[C@@H](CC(C)C)C(=O)N[C@@H](CCCNC(=N)N)C(N)=O)[C@@H](C)CC)[C@@H](C)CC [Peptide C6-KR12] (Hexanoyl-KRIWQRIKDFLR-NH2) | 3.1 (≈ 5.44 µg/mL) | <1.5 | 6.2 (≈ 10.9 µg/mL) | 25 | 12.5 (≈ 22 µg/mL)
CCCCCCCC(=O)N[C@@H](CCCCN)C(=O)N[C@@H](CCCNC(=N)N)C(=O)N[C@H](C(=O)N[C@@H](Cc1c[nH]c2ccccc12)C(N)=O)[C@@H](C)CC [Peptide C8-KR4] (Octanoyl-KRIW-NH2) | >50 | >50 | >50 | >200 | >50
CCCCCCCCCC(=O)N[C@@H](CCCCN)C(=O)N[C@@H](CCCNC(=N)N)C(=O)N[C@H](C(=O)N[C@@H](Cc1c[nH]c2ccccc12)C(N)=O)[C@@H](C)CC [Peptide C10-KR4] (Decanoyl-KRIW-NH2) | 50 (≈ 37.8 µg/mL) | 12.5 (≈ 9.44 µg/mL) | >50 | 150 | 12.5 (≈ 9.44 µg/mL)
CCCCCC(=O)N[C@@H](CCCCN)C(=O)N[C@@H](CCCNC(=N)N)C(=O)N[C@H](C(=O)N[C@@H](Cc1c[nH]c2ccccc12)C(N)=O)[C@@H](C)CC [Peptide C6-KR4] (Hexanoyl-KRIW-NH2) | >50 | >50 | >50 | >200 | >50
CCCCCCCC(=O)N[C@@H](CCCCN)C(=O)N[C@@H](CCCNC(=N)N)C(=O)N[C@H](C(=O)N[C@@H](Cc1c[nH]c2ccccc12)C(=O)N[C@@H](CCC(N)=O)C(=O)N[C@@H](CCCNC(=N)N)C(=O)N[C@H](C(=O)N[C@@H](CCCCN)C(=O)N[C@@H](CC(=O)O)C(=O)N[C@@H](Cc1ccccc1)C(=O)N[C@@H](CC(C)C)C(=O)N[C@@H](CCCNC(=N)N)C(N)=O)[C@@H](C)CC)[C@@H](C)CC [Peptide C8-KR12] (Octanoyl-KRIWQRIKDFLR-NH2) | 6.2 (≈ 11.1 µg/mL) | 3.1 (≈ 5.53 µg/mL) | <6.2 | <25 | 6.2 (≈ 11.1 µg/mL)
CCCCCCCCCC(=O)N[C@@H](CCCCN)C(=O)N[C@@H](CCCNC(=N)N)C(=O)N[C@H](C(=O)N[C@@H](Cc1c[nH]c2ccccc12)C(=O)N[C@@H](CCC(N)=O)C(=O)N[C@@H](CCCNC(=N)N)C(N)=O)[C@@H](C)CC [Peptide C10-KR6] (Decanoyl-KRIWQR-NH2) | 50 (≈ 52 µg/mL) | 12.5 (≈ 13 µg/mL) | >50 | >340 | 25 (≈ 26 µg/mL)
CCCCCCCCCCCC(=O)N[C@@H](CCCCN)C(=O)N[C@@H](CCCNC(=N)N)C(=O)N[C@H](C(=O)N[C@@H](Cc1c[nH]c2ccccc12)C(=O)N[C@@H](CCC(N)=O)C(=O)N[C@@H](CCCNC(=N)N)C(N)=O)[C@@H](C)CC [Peptide C12-KR6] (Lauroyl-KRIWQR-NH2) | 12.5 (≈ 13.3 µg/mL) | 3.1 (≈ 3.31 µg/mL) | >50 | 75 | 6.2 (≈ 6.62 µg/mL)
CCCCCCCCCC(=O)N[C@@H](CCCCN)C(=O)N[C@@H](CCCNC(=N)N)C(=O)N[C@H](C(=O)N[C@@H](Cc1c[nH]c2ccccc12)C(=O)N[C@@H](CCC(N)=O)C(=O)N[C@@H](CCCNC(=N)N)C(=O)N[C@H](C(=O)N[C@@H](CCCCN)C(=O)N[C@@H](CC(=O)O)C(=O)N[C@@H](Cc1ccccc1)C(N)=O)[C@@H](C)CC)[C@@H](C)CC [Peptide C10-KR10] (Decanoyl-KRIWQRIKDF-NH2) | 3.1 (≈ 4.78 µg/mL) | 1.5 (≈ 2.31 µg/mL) | 6.2 (≈ 9.57 µg/mL) | 50 | –
CCCCCCCCCCCC(=O)N[C@@H](CCCCN)C(=O)N[C@@H](CCCNC(=N)N)C(=O)N[C@H](C(=O)N[C@@H](Cc1c[nH]c2ccccc12)C(=O)N[C@@H](CCC(N)=O)C(=O)N[C@@H](CCCNC(=N)N)C(=O)N[C@H](C(=O)N[C@@H](CCCCN)C(=O)N[C@@H](CC(=O)O)C(=O)N[C@@H](Cc1ccccc1)C(N)=O)[C@@H](C)CC)[C@@H](C)CC [Peptide C12-KR10] (Lauroyl-KRIWQRIKDF-NH2) | 6.2 (≈ 9.74 µg/mL) | 1.5 (≈ 2.36 µg/mL) | 3.1 (≈ 4.87 µg/mL) | <25 | –

Now from value to compound:

MIC (μM) EC (E. coli ATCC 25922) [µM] | MIC (μM) SA (S. aureus USA300 LAC) [µM] | MIC (μM) KP [1] [µM] | HC50 [2] [µM] | MIC (μM) PA (P. aeruginosa PAO1) [µM] | Compound
12.5 (≈ 16.7 µg/mL) | <1.5 | >50 | <25 | 6.2 (≈ 8.29 µg/mL) | CCCCCCCCCCCCCC(=O)N[C@@H](CCCCN)C(=O)N[C@@H](CCCNC(=N)N)C(=O)N[C@H](C(=O)N[C@@H](Cc1c[nH]c2ccccc12)C(=O)N[C@@H](CCC(N)=O)C(=O)N[C@@H](CCCNC(=N)N)C(=O)N[C@H](C(=O)N[C@@H](CCCCN)C(N)=O)[C@@H](C)CC)[C@@H](C)CC [Peptide C14-KR8] (Myristoyl-KRIWQRIK-NH2)
50 (≈ 80 µg/mL) | 3.1 (≈ 4.96 µg/mL) | 6.2 (≈ 9.91 µg/mL) | <25 | 12.5 (≈ 20 µg/mL) | CCCCCCCCCCCCCC(=O)N[C@@H](CCCCN)C(=O)N[C@@H](CCCNC(=N)N)C(=O)N[C@H](C(=O)N[C@@H](Cc1c[nH]c2ccccc12)C(=O)N[C@@H](CCC(N)=O)C(=O)N[C@@H](CCCNC(=N)N)C(=O)N[C@H](C(=O)N[C@@H](CCCCN)C(=O)N[C@@H](CC(=O)O)C(=O)N[C@@H](Cc1ccccc1)C(N)=O)[C@@H](C)CC)[C@@H](C)CC [Peptide C14-KR10] (Myristoyl-KRIWQRIKDF-NH2)
6.2 (≈ 8.11 µg/mL) | 1.5 (≈ 1.96 µg/mL) | >50 | 35 | 3.1 (≈ 4.06 µg/mL) | CCCCCCCCCCCC(=O)N[C@@H](CCCCN)C(=O)N[C@@H](CCCNC(=N)N)C(=O)N[C@H](C(=O)N[C@@H](Cc1c[nH]c2ccccc12)C(=O)N[C@@H](CCC(N)=O)C(=O)N[C@@H](CCCNC(=N)N)C(=O)N[C@H](C(=O)N[C@@H](CCCCN)C(N)=O)[C@@H](C)CC)[C@@H](C)CC [Peptide C12-KR8] (Lauroyl-KRIWQRIK-NH2)
25 (≈ 31.3 µg/mL) | 6.2 (≈ 7.77 µg/mL) | >50 | >200 | 12.5 (≈ 15.7 µg/mL) | CCCCCCCC(=O)N[C@@H](CCCCN)C(=O)N[C@@H](CCCNC(=N)N)C(=O)N[C@H](C(=O)N[C@@H](Cc1c[nH]c2ccccc12)C(=O)N[C@@H](CCC(N)=O)C(=O)N[C@@H](CCCNC(=N)N)C(=O)N[C@H](C(=O)N[C@@H](CCCCN)C(N)=O)[C@@H](C)CC)[C@@H](C)CC [Peptide C8-KR8] (Octanoyl-KRIWQRIK-NH2)
12.5 (≈ 13.7 µg/mL) | 3.1 (≈ 3.4 µg/mL) | >50 | <25 | 6.2 (≈ 6.79 µg/mL) | CCCCCCCCCCCCCC(=O)N[C@@H](CCCCN)C(=O)N[C@@H](CCCNC(=N)N)C(=O)N[C@H](C(=O)N[C@@H](Cc1c[nH]c2ccccc12)C(=O)N[C@@H](CCC(N)=O)C(=O)N[C@@H](CCCNC(=N)N)C(N)=O)[C@@H](C)CC [Peptide C14-KR6] (Myristoyl-KRIWQR-NH2)
